Here are results for five molecules from ChEMBL document CHEMBL1201862, “PubChem BioAssay data set” (2004).

Each structure is given as a SMILES string. Activity calls are given as the source filed them.

Assay [1] addresses Luciferin 4-monooxygenase (Photinus pyralis, UniProt P08659). As to the kind of experiment: inhibition of purified Photinus pyralis luciferase – biochemical, luminescence, dose response (AID 1891).
In assay [2] the target is Cyclin-dependent kinase 5/CDK5 activator 1 (Homo sapiens, UniProt Q00535). As to the kind of experiment: blockade of human CDK5 activity – biochemical, cherry-picked samples, set 2, dose response (AID 504545).
Assay [3] can be described thus: Luminescence Cell-Based Dose Confirmation HTS to Identify Inhibitors of Platelet Dense Granule Release. [Related pubchem assays: 1663 (Primary HTS), 1678 (Summary of Project)]. The assay is classed as functional.
Assay [4] is described as follows: ADP-Glo luciferase signal interference – biochemical, luminescence, cherry-picked samples, set 2, artefact control for CDK5 inhibitor project, dose response (AID 504546). The assay is classed as functional, cell-based. A general note: ADP-Glo first removes unused ATP, then detects ADP through luciferase.
Assay [5] addresses Mothers against decapentaplegic homolog 3 (Homo sapiens, UniProt P84022). Kind of assay: blockers of Smad3 complex formation in lysate – cell lysate, secondary confirmation, chemiluminescent ELISA, HEK293 lysate, dose response (AID 1058). The assay is classed as functional.
For assay [6], the target named is Serine/threonine-protein phosphatase PP1-alpha catalytic subunit (Homo sapiens, UniProt P62136). As to the kind of experiment: inhibition of protein phosphatase 1 activity – biochemical, fluorescence, dose response (AID 2403).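 Also: phosphatase turnover of OMFP into fluorescent 3-O-methylfluorescein.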
Sequence of Serine/threonine-protein phosphatase PP1-alpha catalytic subunit (P62136 whole entry): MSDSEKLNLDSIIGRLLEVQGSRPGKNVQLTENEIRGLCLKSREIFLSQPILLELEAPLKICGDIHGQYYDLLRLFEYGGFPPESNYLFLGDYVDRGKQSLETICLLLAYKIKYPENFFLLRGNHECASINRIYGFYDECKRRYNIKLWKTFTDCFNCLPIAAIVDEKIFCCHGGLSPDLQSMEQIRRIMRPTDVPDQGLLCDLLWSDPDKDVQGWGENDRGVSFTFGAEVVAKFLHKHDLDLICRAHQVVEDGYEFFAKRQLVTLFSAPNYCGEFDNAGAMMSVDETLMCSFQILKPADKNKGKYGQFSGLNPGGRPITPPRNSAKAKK
Assay [7] concerns the target Serine/threonine-protein phosphatase (Homo sapiens, UniProt Q9BPW0). As to the kind of experiment: Counterscreen for inhibitors of PP1: fluorescence-based biochemical high throughput dose response assay to identify inhibitors of Protein Phosphatase 5 (PP5). [Related pubchem assays: 2034 (Summary (PP5 inhibitors)), 1987 (PP5 inhibitors in singlate), 2235 (PP1 inhibitors in singlate)]. Background: A counterscreen serves to expose hits that act by an unwanted route or on another target.

Assay [8] deals with DNA dC->dU-editing enzyme APOBEC-3G (Homo sapiens, UniProt Q9HC16). The assay is classed as functional.
Sequence of DNA dC->dU-editing enzyme APOBEC-3G (Q9HC16 whole entry): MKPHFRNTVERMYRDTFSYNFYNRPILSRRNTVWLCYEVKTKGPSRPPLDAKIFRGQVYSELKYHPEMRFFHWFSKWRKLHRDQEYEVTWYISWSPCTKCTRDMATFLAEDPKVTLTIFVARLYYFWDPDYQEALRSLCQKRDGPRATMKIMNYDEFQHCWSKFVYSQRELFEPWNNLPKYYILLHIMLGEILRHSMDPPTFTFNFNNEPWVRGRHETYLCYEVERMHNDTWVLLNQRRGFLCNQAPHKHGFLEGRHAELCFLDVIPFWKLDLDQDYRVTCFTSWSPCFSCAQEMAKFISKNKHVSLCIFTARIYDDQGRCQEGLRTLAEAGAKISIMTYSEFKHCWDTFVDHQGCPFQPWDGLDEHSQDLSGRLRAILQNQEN
Assay [9] concerns the target DNA dC->dU-editing enzyme APOBEC-3A (Homo sapiens, UniProt P31941). As to the kind of experiment: Dose Response confirmation of small molecule APOBEC3A DNA Deaminase Inhibitors via a fluorescence-based single-stranded DNA deaminase assay. [Related pubchem assays (depositor defined):AID493011, AID493024]. The assay is classed as functional.
Assay [10] concerns the target Polyadenylate-binding protein 1 (Homo sapiens, UniProt P11940). Kind of assay: blockers of PABP interaction with poly(A) – biochemical, fluorescence polarization, […] (AID 2014). (In fluorescence polarisation assays a small probe gives low polarisation when free and higher when bound to something large.)
The target in assay [11] is Eukaryotic translation initiation factor 4H (Homo sapiens, UniProt Q15056). Kind of assay: eIF4H binding inhibition – biochemical, uHTS, fluorescence polarization, translation initiation inhibitor project, primary screen (AID 2012).
Assay [12] concerns the target T1, Eukaryotic translation initiation factor 2-alpha kinase 3 (Homo sapiens, UniProt Q9NZJ5). As to the kind of experiment: Dose response cell-based high-throughput screening assay to measure PERK inhibition. [Related pubchem assays: 1416 ]. The assay is classed as functional.
The target in assay [13] is T1, Eukaryotic translation initiation factor 2-alpha kinase 3. Kind of assay: Counterscreen assay for PERK inhibitors: Dose response cell-based high throughput screening assay to measure inhibition of PERK at 6 hours. [Related pubchem assays: 1522, 1416 ]. Type of assay: functional.
In assay [14] the target is T2, Short transient receptor potential channel 4 (Mus musculus, UniProt Q9QUQ5).
T2 sequence (Q9QUQ5 whole entry): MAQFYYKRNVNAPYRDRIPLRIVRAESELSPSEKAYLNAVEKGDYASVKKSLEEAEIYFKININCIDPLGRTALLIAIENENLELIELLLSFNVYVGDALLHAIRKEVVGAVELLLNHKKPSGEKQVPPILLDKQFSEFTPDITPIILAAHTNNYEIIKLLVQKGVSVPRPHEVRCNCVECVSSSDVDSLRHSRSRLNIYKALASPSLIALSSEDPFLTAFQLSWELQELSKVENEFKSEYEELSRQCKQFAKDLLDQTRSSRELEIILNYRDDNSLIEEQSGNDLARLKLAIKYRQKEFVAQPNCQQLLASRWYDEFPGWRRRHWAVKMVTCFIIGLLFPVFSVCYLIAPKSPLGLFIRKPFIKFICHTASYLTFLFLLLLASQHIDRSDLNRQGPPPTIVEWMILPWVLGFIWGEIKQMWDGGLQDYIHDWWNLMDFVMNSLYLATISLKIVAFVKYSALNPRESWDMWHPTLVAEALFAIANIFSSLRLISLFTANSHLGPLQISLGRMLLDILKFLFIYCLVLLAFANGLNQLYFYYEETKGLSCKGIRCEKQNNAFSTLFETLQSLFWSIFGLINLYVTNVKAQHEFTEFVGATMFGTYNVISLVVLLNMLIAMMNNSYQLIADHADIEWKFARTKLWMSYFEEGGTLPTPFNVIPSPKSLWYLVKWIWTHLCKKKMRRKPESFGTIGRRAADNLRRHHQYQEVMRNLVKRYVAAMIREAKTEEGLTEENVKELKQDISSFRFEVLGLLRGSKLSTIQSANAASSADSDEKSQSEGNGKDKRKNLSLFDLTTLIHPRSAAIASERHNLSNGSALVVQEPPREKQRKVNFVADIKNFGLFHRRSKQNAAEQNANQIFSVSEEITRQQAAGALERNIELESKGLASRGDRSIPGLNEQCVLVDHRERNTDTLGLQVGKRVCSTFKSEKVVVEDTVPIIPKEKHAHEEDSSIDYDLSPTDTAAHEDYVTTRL
As to the kind of experiment: block of DAMGO-driven TRPC4 calcium entry – cell-based, HEK293 TRPC4/mu-opioid, Fluo-4 calcium, dose response (AID 434942).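 Also: potency of inhibitors blocking the TRPC4 calcium response.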 The assay is classed as functional.

The target in assay [15] is Eukaryotic translation initiation factor 4E (Mus musculus, UniProt P63073). As to the kind of experiment: blockers of eIF4G binding by eIF4E – biochemical, TR-FRET, dose response (AID 855).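 Also: potency for disrupting eIF4E binding to eIF4GI seen as loss of FRET.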 The assay is classed as functional.
Sequence of Eukaryotic translation initiation factor 4E (P63073 whole entry): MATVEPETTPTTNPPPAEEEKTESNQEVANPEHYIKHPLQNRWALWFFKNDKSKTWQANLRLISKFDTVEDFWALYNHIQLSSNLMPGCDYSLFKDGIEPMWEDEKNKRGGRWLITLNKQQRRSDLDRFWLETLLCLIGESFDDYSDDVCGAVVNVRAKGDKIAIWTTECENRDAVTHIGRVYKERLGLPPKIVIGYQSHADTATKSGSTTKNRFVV

T1 sequence (Q9NZJ5 whole entry): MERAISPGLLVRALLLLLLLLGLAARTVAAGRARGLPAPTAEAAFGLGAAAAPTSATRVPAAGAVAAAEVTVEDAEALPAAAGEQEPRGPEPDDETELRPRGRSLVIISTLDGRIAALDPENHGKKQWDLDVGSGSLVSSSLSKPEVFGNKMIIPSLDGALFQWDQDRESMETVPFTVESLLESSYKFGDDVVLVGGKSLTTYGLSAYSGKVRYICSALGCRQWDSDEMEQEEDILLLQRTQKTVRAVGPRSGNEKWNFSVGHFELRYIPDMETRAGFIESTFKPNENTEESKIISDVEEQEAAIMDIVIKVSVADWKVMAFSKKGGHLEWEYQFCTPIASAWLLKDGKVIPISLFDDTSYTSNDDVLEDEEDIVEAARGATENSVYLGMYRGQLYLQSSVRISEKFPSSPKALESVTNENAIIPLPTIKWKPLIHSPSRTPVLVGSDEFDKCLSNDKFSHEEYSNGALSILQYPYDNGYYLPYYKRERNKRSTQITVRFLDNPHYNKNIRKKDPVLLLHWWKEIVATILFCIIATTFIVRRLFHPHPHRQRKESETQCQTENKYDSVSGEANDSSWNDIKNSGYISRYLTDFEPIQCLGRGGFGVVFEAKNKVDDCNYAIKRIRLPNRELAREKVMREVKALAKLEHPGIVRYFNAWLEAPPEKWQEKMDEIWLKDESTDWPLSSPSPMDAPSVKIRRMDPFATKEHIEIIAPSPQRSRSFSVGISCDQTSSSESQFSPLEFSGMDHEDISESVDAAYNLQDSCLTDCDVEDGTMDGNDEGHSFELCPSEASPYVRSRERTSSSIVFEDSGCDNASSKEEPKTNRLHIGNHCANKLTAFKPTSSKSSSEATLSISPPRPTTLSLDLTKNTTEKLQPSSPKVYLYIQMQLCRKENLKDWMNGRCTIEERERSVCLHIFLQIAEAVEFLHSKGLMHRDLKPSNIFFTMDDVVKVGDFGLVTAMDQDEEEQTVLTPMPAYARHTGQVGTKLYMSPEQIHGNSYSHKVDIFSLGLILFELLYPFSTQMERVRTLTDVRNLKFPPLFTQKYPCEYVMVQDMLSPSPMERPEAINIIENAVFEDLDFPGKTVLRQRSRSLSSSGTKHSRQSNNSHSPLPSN
Sequence of Mothers against decapentaplegic homolog 3 (P84022 whole entry): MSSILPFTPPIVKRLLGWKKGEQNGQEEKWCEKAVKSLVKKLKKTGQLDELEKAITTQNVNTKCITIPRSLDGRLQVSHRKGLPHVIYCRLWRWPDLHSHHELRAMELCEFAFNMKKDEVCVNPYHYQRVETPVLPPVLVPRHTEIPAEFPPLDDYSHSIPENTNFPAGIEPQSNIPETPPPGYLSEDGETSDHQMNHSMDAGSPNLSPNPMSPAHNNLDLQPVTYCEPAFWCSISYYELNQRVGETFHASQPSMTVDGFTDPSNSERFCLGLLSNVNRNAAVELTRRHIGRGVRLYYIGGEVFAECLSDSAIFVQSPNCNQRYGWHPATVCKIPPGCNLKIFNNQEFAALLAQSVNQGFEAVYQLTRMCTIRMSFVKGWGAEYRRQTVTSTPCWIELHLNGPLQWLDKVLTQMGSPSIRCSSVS
Sequence of Luciferin 4-monooxygenase (P08659 whole entry): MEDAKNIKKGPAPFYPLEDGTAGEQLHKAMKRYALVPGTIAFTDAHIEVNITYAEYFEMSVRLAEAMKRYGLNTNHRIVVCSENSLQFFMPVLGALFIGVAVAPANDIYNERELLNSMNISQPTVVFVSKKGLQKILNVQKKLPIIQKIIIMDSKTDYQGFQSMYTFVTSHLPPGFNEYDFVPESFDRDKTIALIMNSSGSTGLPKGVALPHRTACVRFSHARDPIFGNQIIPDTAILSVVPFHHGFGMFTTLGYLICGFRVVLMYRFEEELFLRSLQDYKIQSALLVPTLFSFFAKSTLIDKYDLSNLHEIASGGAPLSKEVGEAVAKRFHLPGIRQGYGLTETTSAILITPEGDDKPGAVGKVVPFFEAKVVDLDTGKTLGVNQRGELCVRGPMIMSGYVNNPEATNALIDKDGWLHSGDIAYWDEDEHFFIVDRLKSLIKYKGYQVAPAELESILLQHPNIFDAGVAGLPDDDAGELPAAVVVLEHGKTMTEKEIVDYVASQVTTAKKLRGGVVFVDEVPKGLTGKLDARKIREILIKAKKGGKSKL
Sequence of DNA dC->dU-editing enzyme APOBEC-3A (P31941 whole entry): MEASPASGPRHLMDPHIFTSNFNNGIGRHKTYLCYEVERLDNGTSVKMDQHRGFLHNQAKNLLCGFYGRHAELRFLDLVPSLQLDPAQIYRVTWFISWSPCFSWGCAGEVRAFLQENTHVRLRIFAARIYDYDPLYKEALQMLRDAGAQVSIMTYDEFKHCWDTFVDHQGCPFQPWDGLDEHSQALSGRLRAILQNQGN
Sequence of Polyadenylate-binding protein 1 (P11940 whole entry): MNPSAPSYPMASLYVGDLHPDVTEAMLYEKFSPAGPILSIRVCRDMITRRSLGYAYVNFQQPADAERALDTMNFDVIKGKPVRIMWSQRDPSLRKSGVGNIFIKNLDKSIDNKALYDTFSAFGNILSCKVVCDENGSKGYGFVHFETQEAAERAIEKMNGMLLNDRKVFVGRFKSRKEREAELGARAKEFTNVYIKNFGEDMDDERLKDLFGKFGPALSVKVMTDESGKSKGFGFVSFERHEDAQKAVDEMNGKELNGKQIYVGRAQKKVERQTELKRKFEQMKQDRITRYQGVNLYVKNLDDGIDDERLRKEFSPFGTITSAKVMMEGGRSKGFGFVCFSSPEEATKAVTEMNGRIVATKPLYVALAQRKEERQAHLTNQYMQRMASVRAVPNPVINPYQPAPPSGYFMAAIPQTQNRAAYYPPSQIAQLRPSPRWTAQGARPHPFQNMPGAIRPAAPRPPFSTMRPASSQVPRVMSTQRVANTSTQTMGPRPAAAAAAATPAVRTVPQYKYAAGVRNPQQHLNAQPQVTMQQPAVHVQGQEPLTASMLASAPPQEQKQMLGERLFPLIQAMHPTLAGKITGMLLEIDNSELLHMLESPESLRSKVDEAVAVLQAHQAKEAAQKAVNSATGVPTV
Sequence of Serine/threonine-protein phosphatase (Q9BPW0 whole entry): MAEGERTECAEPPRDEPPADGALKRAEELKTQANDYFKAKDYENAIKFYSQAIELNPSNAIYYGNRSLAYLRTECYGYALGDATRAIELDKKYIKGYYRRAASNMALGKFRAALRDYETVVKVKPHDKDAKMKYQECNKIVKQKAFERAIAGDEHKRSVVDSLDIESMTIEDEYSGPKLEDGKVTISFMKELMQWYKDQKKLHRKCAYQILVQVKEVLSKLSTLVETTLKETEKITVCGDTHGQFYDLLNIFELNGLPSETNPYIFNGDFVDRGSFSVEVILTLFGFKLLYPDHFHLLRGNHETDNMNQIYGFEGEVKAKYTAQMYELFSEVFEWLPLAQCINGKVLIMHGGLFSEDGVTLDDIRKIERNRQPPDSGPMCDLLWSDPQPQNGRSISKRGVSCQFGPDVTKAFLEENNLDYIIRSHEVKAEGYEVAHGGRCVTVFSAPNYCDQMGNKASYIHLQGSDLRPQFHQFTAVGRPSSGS

Broadly, the EC50 is the concentration that produces a half-maximal response. In general, AC50 refers to the concentration at which the activity in the assay is half-maximal. On to `COc1ccc(C(=O)O/N=C(/C)c2cccs2)cc1`, for which the EC50 in assay [1] is 0.517 µM (active); in assay [3], 1.34 µM (active). For the same molecule, the concentration at half-maximal activity (AC50) in [2] is 15.7 µM (active); in [4], 31.8 µM (active).
One may read the IC50 as the midpoint of a concentration-inhibition curve. Take `COc1ccc(C(c2cc3c(cc2O)OCO3)N2CCOCC2)cc1OC` (stereo not given): in [5], the concentration for half-maximal inhibition (IC50) is reported as 12.2 µM (not active).
Consider `COc1ccc2c(Cl)c(C(=O)N/N=C/c3ccncc3)sc2c1`, for which the IC50 is 6.48 µM (active) in assay [6] and > 67 µM (not active) in [7].
Take `C=CCNC1=N[C@@H](c2ccccc2)C(C(=O)OC)=C(C)N1CC`: the half-maximal inhibitory concentration (IC50) in [8] is 4.51 µM (active); in assay [9], 5.62 µM (active); in assay [10] it was 9.54 µM (active); in assay [11], > 100 µM (inactive).
On to `Cc1cc(/C=C2/C(=N)N3C(=NC2=O)SN=C3S(C)(=O)=O)c(C)n1-c1ccccc1F`, for which the values for the EC50 in [12], in [13] and in [14] were > 55.7 µM (not active), > 55.7 µM (not active) and 1.19 µM (active), respectively. Besides, in assay [15], the IC50 is 50 µM (inactive).
